From the supplement of paper PMC10883282

What was measured:
Assay in all cases: relative viability vs DMSO control (72 h) (fraction); higher = more viable cells
HT1080 = tested on: HT1080
Procedure, shortened: (§1)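 Plates held 72 h at 37 °C and 5% CO2 contained sarcoma cell lines seeded in 384-well format to reach 80–90% confluence, plus 2.5 µl of serially diluted compound added after 24 h. Source plate concentrations ran from 10 mM to 0.0002 mM, with 0.1% DMSO as vehicle and a 5 µM positive control. Percent growth from ATPLite readings, averaged over up to triplicate wells, gave relative viability. Values were rescaled with 1 as full and 0 as none.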

SW872 = tested on: SW872
Procedure, shortened: as §1

SW1353 = tested on: SW1353
Procedure, shortened: as §1

KHOS-NP = tested on: KHOS-NP
Procedure, shortened: as §1

RD-ES = tested on: RD-ES
Procedure, shortened: as §1

MES-SA = tested on: MES-SA
Procedure, shortened: as §1

SK-ES-1 = tested on: SK-ES-1
Procedure, shortened: as §1

SW684 = tested on: SW684
Procedure, shortened: as §1

SK-LMS-1 = tested on: SK-LMS-1
Procedure, shortened: as §1

G401 = tested on: G401
Procedure, shortened: as §1

VA-ES-BJ = tested on: VA-ES-BJ
Procedure, shortened: as §1

RD = tested on: RD
Procedure, shortened: as §1

C1=N/C2=N/c3ccc(OCCN4CCCC4)c(c3)COC/C=C/COCc3cccc(c3)C(=C1)N2 [Pacritinib]
Conditions | relative viability
G401, 0.00017 µM | 1.05
G401, 0.00051 µM | 1.09
G401, 0.00152 µM | 1.02
G401, 0.00457 µM | 1.06
G401, 0.01372 µM | 1.03
G401, 0.04115 µM | 1
G401, 0.1235 µM | 0.966
G401, 0.3704 µM | 0.868
G401, 1.111 µM | 0.552
G401, 3.333 µM | 0.044
G401, 10 µM | 0.0119
HT1080, 0.00017 µM | 1.09
HT1080, 0.00051 µM | 1.07
HT1080, 0.00152 µM | 1.09
HT1080, 0.00457 µM | 1.09
HT1080, 0.01372 µM | 1.08
HT1080, 0.04115 µM | 1.09
HT1080, 0.1235 µM | 1.08
HT1080, 0.3704 µM | 1.12
HT1080, 1.111 µM | 0.925
HT1080, 3.333 µM | 0.169
HT1080, 10 µM | 0.101
KHOS-NP, 0.00017 µM | 1.09
KHOS-NP, 0.00051 µM | 1.12
KHOS-NP, 0.00152 µM | 1.107
KHOS-NP, 0.00457 µM | 1.11
KHOS-NP, 0.01372 µM | 1.125
KHOS-NP, 0.04115 µM | 1.117
KHOS-NP, 0.1235 µM | 1.116
KHOS-NP, 0.3704 µM | 1.112
KHOS-NP, 1.111 µM | 0.996
KHOS-NP, 3.333 µM | 0.451
KHOS-NP, 10 µM | 0.516
MES-SA, 0.00017 µM | 0.966
MES-SA, 0.00051 µM | 0.9661
MES-SA, 0.00152 µM | 0.953
MES-SA, 0.00457 µM | 0.951
MES-SA, 0.01372 µM | 0.938
MES-SA, 0.04115 µM | 0.936
MES-SA, 0.1235 µM | 0.937
MES-SA, 0.3704 µM | 0.794
MES-SA, 1.111 µM | 0.46
MES-SA, 3.333 µM | 0.0101
MES-SA, 10 µM | 0.00167
RD, 0.00017 µM | 1.08
RD, 0.00051 µM | 1.1
RD, 0.00152 µM | 1.12
RD, 0.00457 µM | 1.11
RD, 0.01372 µM | 1.13
RD, 0.04115 µM | 1.111
RD, 0.1235 µM | 1.07
RD, 0.3704 µM | 0.823
RD, 1.111 µM | 0.462
RD, 3.333 µM | 0.158
RD, 10 µM | 0.144
RD-ES, 0.00017 µM | 1
RD-ES, 0.00051 µM | 1.03
RD-ES, 0.00152 µM | 1.04
RD-ES, 0.00457 µM | 1.01
RD-ES, 0.01372 µM | 1.03
RD-ES, 0.04115 µM | 1
RD-ES, 0.1235 µM | 0.967
RD-ES, 0.3704 µM | 0.821
RD-ES, 1.111 µM | 0.437
RD-ES, 3.333 µM | 0.109
RD-ES, 10 µM | 0.165
SK-ES-1, 0.00017 µM | 1.07
SK-ES-1, 0.00051 µM | 1.06
SK-ES-1, 0.00152 µM | 1.06
SK-ES-1, 0.00457 µM | 1.02
SK-ES-1, 0.01372 µM | 1.07
SK-ES-1, 0.04115 µM | 0.989
SK-ES-1, 0.1235 µM | 0.945
SK-ES-1, 0.3704 µM | 0.593
SK-ES-1, 1.111 µM | 0.222
SK-ES-1, 3.333 µM | 0.00983
SK-ES-1, 10 µM | 0.00643
SK-LMS-1, 0.00017 µM | 1.1
SK-LMS-1, 0.00051 µM | 1.136
SK-LMS-1, 0.00152 µM | 1.08
SK-LMS-1, 0.00457 µM | 1.085
SK-LMS-1, 0.01372 µM | 1.08
SK-LMS-1, 0.04115 µM | 1.08
SK-LMS-1, 0.1235 µM | 1.1
SK-LMS-1, 0.3704 µM | 1.116
SK-LMS-1, 1.111 µM | 0.959
SK-LMS-1, 3.333 µM | 0.539
SK-LMS-1, 10 µM | 0.2186
SW684, 0.00017 µM | 1.14
SW684, 0.00051 µM | 1.17
SW684, 0.00152 µM | 1.15
SW684, 0.00457 µM | 1.19
SW684, 0.01372 µM | 1.15
SW684, 0.04115 µM | 1.11
SW684, 0.1235 µM | 0.977
SW684, 0.3704 µM | 0.781
SW684, 1.111 µM | 0.544
SW684, 3.333 µM | 0.189
SW684, 10 µM | 0.0544
SW872, 0.00017 µM | 1.11
SW872, 0.00051 µM | 1.08
SW872, 0.00152 µM | 1.08
SW872, 0.00457 µM | 1.1
SW872, 0.01372 µM | 1.1
SW872, 0.04115 µM | 1.06
SW872, 0.1235 µM | 1.02
SW872, 0.3704 µM | 0.839
SW872, 1.111 µM | 0.541
SW872, 3.333 µM | 0.131
SW872, 10 µM | 0.0932
SW1353, 0.00017 µM | 1.06
SW1353, 0.00051 µM | 1.091
SW1353, 0.00152 µM | 1.08
SW1353, 0.00457 µM | 1.03
SW1353, 0.01372 µM | 1
SW1353, 0.04115 µM | 0.981
SW1353, 0.1235 µM | 0.966
SW1353, 0.3704 µM | 0.882
SW1353, 1.111 µM | 0.775
SW1353, 3.333 µM | 0.178
SW1353, 10 µM | 0.0164
VA-ES-BJ, 0.00017 µM | 1.11
VA-ES-BJ, 0.00051 µM | 1.11
VA-ES-BJ, 0.00152 µM | 1.09
VA-ES-BJ, 0.00457 µM | 1.07
VA-ES-BJ, 0.01372 µM | 1.06
VA-ES-BJ, 0.04115 µM | 1.08
VA-ES-BJ, 0.1235 µM | 1.02
VA-ES-BJ, 0.3704 µM | 0.855
VA-ES-BJ, 1.111 µM | 0.149
VA-ES-BJ, 3.333 µM | 0.0927
VA-ES-BJ, 10 µM | 0.0817
